Measurements reported in patent publication EP3170833B1, “20,23-PIPERIDINYL-5-O-MYCAMINOSYL-TYLONOLIDE POLYMORPHS” (Intervet International B.V., priority 2007, dated 2009).

Columns and labels:
Type in all cases: physicochemical
[1] = Dynamic vapor sorption (DVS); details: 25°C; for maximum water uptake: at 95% relative humidity
Procedure: Dynamic vapor sorption ("DVS") measurements were obtained with a Projekt Messtechnik SPS11-100n water vapor sorption analyzer. The samples were placed into aluminum crucibles on a microbalance, and allowed to equilibrate at 25°C and 50% relative humidity before initiating the following pre-defined humidity program at 25°C: 50-95-0-50% relative humidity, and scanning with a 5% change in relative humidity per hour and with iso-humid equilibration periods at extreme values.

[2] = Thermogravimetry (TG / TG-FTIR): thermal stability; details: N2 atmosphere, heating rate of 10°C/min
Procedure: Measurements of thermogravimetry coupled to Fourier transform infrared spectroscopy ("TG-FTIR") were obtained using a Netzsch Thermo-Microbalance TG 209 with a Bruker Vector 22 FT-IR Spectrometer using an aluminum crucible (with micro-hole or open), N2 atmosphere, heating rate of 10°C/min, and temperature range of 25-250°C.
Thermogravimetry ("TG") measurements were obtained with a Perkin Elmer TGS 2 thermogravimetric analyzer using an aluminum crucible (open), N2 atmosphere, heating rate of 10°C/min, and temperature range of 25-500°C.

[3] = Desolvation experiment: drying under vacuum
Procedure: A weight loss of from about 8.7-10% occurred due to tBME liberation. This weight loss corresponds to 0.8-0.9 tBME molecule per molecule of 20,23-dipiperidinyl-5-O-mycaminosyl-tylonolide, assuming essentially pure 20,23-dipiperidinyl-5-O-mycaminosyl-tylonolide. Almost all the weight loss occurs above 90°C, with a sharp step when the temperature increases to greater than 100°C. Thus, the majority of the weight loss occurs at temperatures greater than the boiling point of tBME.
Example 7. Preparation of the Form III polymorph of 20,23-dipiperidinyl-5-O-mycaminosyl-tylonolide. The Form III polymorph of 20,23-dipiperidinyl-5-O-mycaminosyl-tylonolide was prepared by drying, under vacuum at ambient temperature for 20 hours, the ethyl acetate S1 crystalline solvate of 20,23-dipiperidinyl-5-O-mycaminosyl-tylonolide (50 mg) prepared in accordance with Example 6.
Although this procedure was successfully repeated for forming S2 solvate crystals, additional batches of S2 solvate crystals were formed by dissolving an additional amount of the Form II polymorph of 20,23-dipiperidinyl-5-O-mycaminosyl-tylonolide in tert-butyl methyl ether, seeding S2 solvate crystals from the first batch, and removing the tert-butyl methyl ether. In one experiment, the S2 crystalline solvate was prepared by dissolving the Form II polymorph of 20,23-dipiperidinyl-5-O-mycaminosyl-tylonolide (245.7 mg) in tert-butyl methyl ether (0.5 ml), and slowly evaporating a portion of the solvent at ambient temperature. After no crystals formed, additional tert-butyl methyl ether was added, followed by seeding S2 solvate crystals from the first batch. The solvent was then allowed to evaporate completely. The FT-Raman spectrum for these crystals was approximately identical to the FT-Raman spectrum for the crystals from the first batch. […] The FT-Raman spectra of the crystals after each drying step coincided to the FT-Raman spectrum from the first batch.

Solubility in tBME = details: solvent tBME

Compound: CCC1OC(=O)CC(O)C(C)C(OC2OC(C)C(O)C(N(C)C)C2O)C(CCN2CCCCC2)CC(C)C(=O)C=CC(C)=CC1CN1CCCCC1 (stereo not drawn) [Form I polymorph, 20,23-dipiperidinyl-5-O-mycaminosyl-tylonolide]
- maximum water uptake [1]: less than 1 % (by weight)

Compound: CCC1OC(=O)CC(O)C(C)C(OC2OC(C)C(O)C(N(C)C)C2O)C(CCN2CCCCC2)CC(C)C(=O)C=CC(C)=CC1CN1CCCCC1 (stereo not drawn) [Form II polymorph, 20,23-dipiperidinyl-5-O-mycaminosyl-tylonolide]
- maximum water uptake [1]: about 2 % (by weight)
- temperature at which decomposition began ([2]; TG-FTIR): greater than 220 °C

Compound: CCC1OC(=O)CC(O)C(C)C(OC2OC(C)C(O)C(N(C)C)C2O)C(CCN2CCCCC2)CC(C)C(=O)C=CC(C)=CC1CN1CCCCC1 (stereo not drawn) [Form III polymorph, 20,23-dipiperidinyl-5-O-mycaminosyl-tylonolide]
- water uptake ([1]; between 70 and 85% relative humidity): about 6%
- temperature at which decomposition began ([2]; TG): greater than 270 °C

Compound: CCC1OC(=O)CC(O)C(C)C(OC2OC(C)C(O)C(N(C)C)C2O)C(CCN2CCCCC2)CC(C)C(=O)C=CC(C)=CC1CN1CCCCC1 (stereo not drawn) [ethyl acetate S1 crystalline solvate, 20,23-dipiperidinyl-5-O-mycaminosyl-tylonolide]
- conversion by vacuum drying ([3]; vacuum drying at ambient temperature): readily converted into the Form III polymorph

Compound: CC[C@H]1OC(=O)C[C@@H](O)[C@H](C)[C@@H](O[C@@H]2O[C@H](C)[C@@H](O)[C@H](N(C)C)[C@H]2O)[C@@H](CCN2CCCCC2)C[C@@H](C)C(=O)/C=C/C(C)=C/[C@@H]1CN1CCCCC1 [tBME S2 crystalline solvate, 20,23-dipiperidinyl-5-O-mycaminosyl-tylonolide]
- solubility (Solubility in tBME): 40 to 50 mg/mL
- stability ([3]; 60°C at 1 mbar (absolute) for 1 day): exhibits stability
- loss of solvent upon drying under vacuum ([3]; at both ambient temperature and 70°C): no loss of solvent was observed
